Experimental data reported in patent US5457124A, “Carboxylic acid Leukotriene B4 antagonists” (Hoffmann-La Roche Inc., priority 1993, dated 1995).
pKi: −log10 of the molar value.

Assays:
LTB4 Receptor = biological target: T1, LTB4 Receptor (Homo sapiens, UniProt Q15722); test: LTB4 Receptor Binding Assay (inhibition of 3H-LTB4 binding, isolated human neutrophils); conditions: 0.5 nM 3H-LTB4, 45 minutes on ice, Cheng-Prusoff, read-out: Ki, human neutrophil cells (inhibition of 3H-LTB4 binding)
T1 construct: Isolated human neutrophils in Gey's salt solution; endogenous in cells; host or cells: isolated human neutrophils
Method: LTB4 Receptor Binding Assay
Binding assays can be performed in microliter wells. Isolated human neutrophils in Gey's salt solution are incubated on ice for 45 minutes with 0.5 nM ^3 H-LTB4 in the presence or absence of test compounds. Assays are terminated by adding 12 ml of ice cold 50 mM Tris buffer (pH 7.4) followed by rapid filtration under vacuum through GF/C filters. Radioactivity is determined by scintillation counting. Non specific binding is defined as the binding not displaced by 100 fold excess of unlabelled LTB4. Specific binding is defined as the difference between total binding and non-specific binding. Non linear analysis of the binding data is performed using LIGAND (Munson and Rodbard, 1980). Ki (Inhibition Constant) values were determined using the Cheng-Prusoff relationship (Cheng and Prusoff, 1973).
When representative compounds of formulas A, B or C of the invention were tested, the results as set forth in Table I and expressed as inhibition of ^3 H-LTB4 binding were obtained.

leukotriene B4 = test: Guinea Pig Bronchoconstriction, In Vivo (leukotriene B4 challenge); parameters: species or system guinea pig (Hartley strain); conditions: 0.1 mg/kg test compound dose p.o., 2 hr prior to leukotriene B4 (200 μg/kg i.v.); propranolol 0.1 mg/kg i.v.; male guinea pigs
Method: Guinea Pig Bronchoconstriction, In Vivo
Male guinea pigs (Hartley strain), weighing 300 to 500 g are anesthetized with urethane (2 g/kg) intraperitoneally and a polyethylene cannula is inserted into the jugular vein for drug administration. Tracheal pressure is recorded from a cannula inserted into the trachea and connected to a Gould P231D pressure transducer. After surgical preparation of the animals, a period of time is allowed for pulmonary functions to stabilize. Animals are then paralyzed with succinylcholine (1.2 mg/kg, i.v.) and mechanically respirated (Harvard rodent respirator) at 40 breaths/minute and 2.5 cc tidal volume. The test compound is administered p.o., 2 hr prior to leukotriene B4 administration. Propranolol (0.1 mg/kg) is administered intravenously 5 min prior to leukotriene B4 administration. Animals are then challenged with an intermediate constrictory dose of leukotriene B4 (200 μg/kg), delivered intravenously.
The change (cm H2 O) between pre and peak ventilatory pressure readings is averaged for 6 control and 6 drug treated animals. The percent inhibition is calculated from the formula:
((Control-Drug Treated)/Control)×100
When representative compounds of formulas A, B and C of the invention were utilized as the test compounds, the following results were obtained: […]

T1 sequence (Q15722 whole entry): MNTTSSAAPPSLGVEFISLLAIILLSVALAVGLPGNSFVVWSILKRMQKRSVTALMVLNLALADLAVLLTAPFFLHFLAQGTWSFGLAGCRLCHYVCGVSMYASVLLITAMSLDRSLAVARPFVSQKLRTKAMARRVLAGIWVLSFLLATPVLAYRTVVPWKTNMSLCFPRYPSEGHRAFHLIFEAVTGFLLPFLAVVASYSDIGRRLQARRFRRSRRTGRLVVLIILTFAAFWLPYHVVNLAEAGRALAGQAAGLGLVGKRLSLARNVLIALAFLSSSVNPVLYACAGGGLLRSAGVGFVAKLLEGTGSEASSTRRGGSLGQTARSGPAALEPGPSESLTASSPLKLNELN

pKi (LTB4 Receptor)	Compound	% inhibition (of leukotriene B4-induced bronchoconstriction) (leukotriene B4) [%]
9.00	O=C(O)CCCOc1cccc(CCCCCCOc2ccc3c(c2CCCc2ccccc2)OCCC3=O)c1CCC(=O)O [2-(3-Carboxypropoxy)-6-[6-[[3,4-dihydro-4-oxo-8-(3-phenylpropyl)-2H-1-benzopyran-7-yl]oxy]hexyl]benzenepropanoic Acid]	67
8.70	O=C(O)CCCOc1cccc(CCCCCCOc2ccc3c(c2CCCc2ccccc2)CCCC3=O)c1CCC(=O)O [2-(3-Carboxypropoxy)-6-[6-[[5,6,7,8-tetrahydro-5-oxo-1-(3-phenylpropyl)-2-naphthalenyl]oxy]hexyl]benzenepropanoic Acid]	78
9.00	O=C(O)CCCOc1cccc(CCCCCCOc2ccc3c(c2C/C=C/c2ccccc2)CCCC3=O)c1CCC(=O)O [(E)-2-(3-Carboxypropoxy)-6-[6-[[5,6,7,8-tetrahydro-5-oxo-1-(3-phenyl-2-propenyl)-2-naphthalenyl]oxy]hexyl]benzenepropanoic Acid]	64
